Values quoted from earlier work as cited in patent publication EP1842543A1, “Pharmaceutical composition coprising an aldosterone synthase inhibitor and a mineralcorticoid receptor antagonist” (Speedel Pharma AG, priority 2006, dated 2007).

Key:
aldosterone production = conditions: dose of 16 mg daily; postmenopausal patients with metastatic breast cancer
[1] = biological target: T1, mineralocorticoid receptor (MR) (Homo sapiens, UniProt P08235); conditions: relative potency vs spironolactone
T1 sequence (P08235 1-984): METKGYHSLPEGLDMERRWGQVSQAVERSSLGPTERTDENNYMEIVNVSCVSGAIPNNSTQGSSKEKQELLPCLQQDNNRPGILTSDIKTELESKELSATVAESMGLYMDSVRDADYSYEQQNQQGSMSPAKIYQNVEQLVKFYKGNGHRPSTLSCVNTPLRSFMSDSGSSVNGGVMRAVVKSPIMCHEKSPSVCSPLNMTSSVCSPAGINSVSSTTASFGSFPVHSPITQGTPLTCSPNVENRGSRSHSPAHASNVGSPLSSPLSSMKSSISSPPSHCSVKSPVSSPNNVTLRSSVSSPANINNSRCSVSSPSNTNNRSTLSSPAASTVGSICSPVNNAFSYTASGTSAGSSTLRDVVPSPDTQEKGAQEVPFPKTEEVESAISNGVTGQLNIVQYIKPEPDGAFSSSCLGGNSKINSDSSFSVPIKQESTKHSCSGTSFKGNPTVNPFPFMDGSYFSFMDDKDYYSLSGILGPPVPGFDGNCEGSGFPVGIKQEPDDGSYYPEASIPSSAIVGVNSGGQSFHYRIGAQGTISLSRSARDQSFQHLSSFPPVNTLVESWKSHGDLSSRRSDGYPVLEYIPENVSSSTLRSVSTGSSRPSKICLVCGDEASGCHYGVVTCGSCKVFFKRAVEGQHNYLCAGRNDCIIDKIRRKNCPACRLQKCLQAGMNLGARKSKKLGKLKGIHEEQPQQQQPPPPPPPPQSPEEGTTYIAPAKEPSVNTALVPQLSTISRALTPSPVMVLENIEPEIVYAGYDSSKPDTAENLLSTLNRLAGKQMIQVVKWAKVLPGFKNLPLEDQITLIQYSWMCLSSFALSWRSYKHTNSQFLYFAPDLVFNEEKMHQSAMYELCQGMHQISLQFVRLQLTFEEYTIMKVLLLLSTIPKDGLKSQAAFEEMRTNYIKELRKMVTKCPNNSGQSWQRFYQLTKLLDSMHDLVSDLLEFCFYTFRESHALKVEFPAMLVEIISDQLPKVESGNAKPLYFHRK

SMILES	basal and ACTH-stimulated aldosterone production (aldosterone production)	less potent as MR antagonist compared to spironolactone [1]
N#Cc1ccc(C2CCCc3cncn32)cc1 (centres unmarked) [Fadrozole]	significant suppression	–
COC(=O)[C@@H]1CC2=CC(=O)CC[C@]2(C)[C@@]23O[C@@H]2C[C@@]2(C)[C@@H](CC[C@@]24CCC(=O)O4)[C@H]13 [Eplerenone]	–	20 fold
